pIC50, pKi: −log10 of the molar value.
Columns and labels:
[1] = In vitro anti-plasmodial activity against Plasmodium falciparum dihydrofolate reductase […]/C59R/S108N/I164L (V1/S) mutant
[2] = In vitro anti-plasmodial activity against Plasmodium falciparum dihydrofolate reductase wild type (TM4/8.2)
[3] = In vitro anti-plasmodial activity against Plasmodium falciparum dihydrofolate reductase C59R+S108N/I164L (Csl-2) mutant
[4] = In vitro anti-plasmodial activity against Plasmodium falciparum dihydrofolate reductase N51I/C59R/S108N (W2)
[5] = In vitro anti-plasmodial activity against Plasmodium falciparum dihydrofolate reductase A16V/S108T (T9/94RC17) mutant
[6] = target: Bifunctional dihydrofolate reductase-thymidylate synthase (Plasmodium falciparum (isolate K1 / Thailand), UniProt P13922); test: Binding affinity towards wild-type dihydrofolate reductase of Plasmodium falciparum.
[7] = In vitro anti-plasmodial activity against Plasmodium falciparum dihydrofolate reductase C59R/S108N (K1CB1) mutant

Chain of Bifunctional dihydrofolate reductase-thymidylate synthase (P13922 whole entry): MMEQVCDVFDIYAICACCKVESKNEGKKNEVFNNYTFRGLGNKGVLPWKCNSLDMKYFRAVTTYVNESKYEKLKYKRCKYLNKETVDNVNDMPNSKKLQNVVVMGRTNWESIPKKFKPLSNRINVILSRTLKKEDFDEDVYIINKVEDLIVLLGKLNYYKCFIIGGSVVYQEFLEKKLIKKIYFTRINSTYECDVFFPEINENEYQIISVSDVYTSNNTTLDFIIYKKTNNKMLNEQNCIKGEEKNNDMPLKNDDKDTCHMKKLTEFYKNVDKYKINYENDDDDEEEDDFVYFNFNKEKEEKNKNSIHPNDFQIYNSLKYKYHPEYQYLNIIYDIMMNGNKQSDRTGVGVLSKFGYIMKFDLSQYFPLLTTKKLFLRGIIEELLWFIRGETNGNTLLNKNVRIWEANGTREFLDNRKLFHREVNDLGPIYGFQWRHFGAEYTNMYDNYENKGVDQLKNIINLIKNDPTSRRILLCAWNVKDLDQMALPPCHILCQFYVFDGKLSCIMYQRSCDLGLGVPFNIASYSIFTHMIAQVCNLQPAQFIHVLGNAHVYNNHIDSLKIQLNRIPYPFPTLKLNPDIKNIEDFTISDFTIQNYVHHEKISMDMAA

SMILES | pIC50 [1] | pIC50 [2] | pIC50 [3] | pIC50 [4] | pIC50 [5] | pKi [6] | pIC50 [7]
CC1(C)N=C(N)N=C(N)N1c1ccc(Cl)cc1 [Chlorazin] | < 4.00 | 7.40 | 4.42 | 5.24 | 5.43 | – | –
CC(C)C1(C)N=C(N)N=C(N)N1c1ccc(Cl)cc1 (stereo unspecified) [1-(4-Chloro-phenyl)-6-isopropyl-6-methyl-1,6-dihydro-[1,3,5]triazine-2,4-diamine] | – | – | – | – | – | 7.44 | –
CCCOc1ccc(C2N=C(N)N=C(N)N2c2cccc(Cl)c2)cc1 (stereo unspecified) [1-(3-chlorophenyl)-6-(4-propoxyphenyl)-1,6-dihydro-1,3,5-triazine-2,4-diamine] | 5.54 | 6.60 | 5.54 | 6.42 | 8.40 | – | 6.00
CCCC1(C)N=C(N)N=C(N)N1c1cccc(Cl)c1 (stereo unspecified) [1-(3-chlorophenyl)-6-methyl-6-propyl-1,6-dihydro-1,3,5-triazine-2,4-diamine] | 5.96 | 6.74 | 6.54 | 6.55 | – | 8.34 | 6.74
NC1=NC(c2cccc(Oc3cccc(C(F)(F)F)c3)c2)N(c2cccc(Cl)c2)C(N)=N1 (stereo unspecified) [1-(3-chlorophenyl)-6-(3-(3-(trifluoromethyl)phenoxy)phenyl)-1,6-dihydro-1,3,5-triazine-2,4-diamine] | 5.49 | 5.49 | 5.47 | 5.55 | 6.74 | 8.57 | 5.55
CCCCCCC1(C)N=C(N)N=C(N)N1c1cccc(Cl)c1 (stereo unspecified) [1-(3-Chloro-phenyl)-6-hexyl-6-methyl-1,6-dihydro-[1,3,5]triazine-2,4-diamine] | 5.49 | 7.22 | 6.31 | 6.29 | – | 8.62 | 6.32
NC1=NC(c2ccccc2)N(c2cccc(Cl)c2)C(N)=N1 (stereo unspecified) [1-(3-chlorophenyl)-6-phenyl-1,6-dihydro-1,3,5-triazine-2,4-diamine] | 6.10 | 6.25 | 6.60 | 6.70 | 7.70 | – | 6.51
CC(=O)OCCCc1nc(N)nc(N)c1-c1ccccc1 [Acetic acid 3-(2,6-diamino-5-phenyl-pyrimidin-4-yl)-propyl ester] | – | – | – | – | – | 7.97 | –
CCc1nc(N)nc(N)c1-c1cccc(Cl)c1 [5-(3-chlorophenyl)-6-ethylpyrimidine-2,4-diamine] | 5.04 | 6.38 | 5.60 | 5.41 | – | – | –
CCCC1(C)N=C(N)N=C(N)N1c1ccc(Cl)cc1 (stereo unspecified) [1-(4-Chloro-phenyl)-6-methyl-6-propyl-1,6-dihydro-[1,3,5]triazine-2,4-diamine] | – | – | – | – | – | 8.46 | –
NC1=NC(c2cccc(Oc3ccc(Cl)cc3)c2)N(c2cccc(Cl)c2)C(N)=N1 (stereo unspecified) [6-(3-(4-chlorophenoxy)phenyl)-1-(3-chlorophenyl)-1,6-dihydro-1,3,5-triazine-2,4-diamine] | 5.49 | 5.41 | 5.51 | 5.70 | 6.41 | 8.89 | 5.59
CCCCCCc1nc(N)nc(N)c1-c1ccccc1 [6-hexyl-5-phenylpyrimidine-2,4-diamine] | 5.19 | 7.22 | 5.52 | 5.64 | – | – | –
Nc1nc(N)c(-c2cccc(Cl)c2)c(CCCOC(=O)OCc2ccccc2)n1 [benzyl 3-(2,6-diamino-5-(3-chlorophenyl)pyrimidin-4-yl)propyl carbonate] | 5.23 | 5.72 | 5.72 | 5.39 | – | 8.92 | –
CC(C)C1(C)N=C(N)N=C(N)N1c1cccc(Cl)c1 (stereo unspecified) [1-(3-Chloro-phenyl)-6-isopropyl-6-methyl-1,6-dihydro-[1,3,5]triazine-2,4-diamine] | – | – | – | – | – | 7.59 | –
NC1=NC(c2ccc(Oc3ccccc3)cc2)N(c2cccc(Cl)c2)C(N)=N1 (stereo unspecified) [1-(3-chlorophenyl)-6-(4-phenoxyphenyl)-1,6-dihydro-1,3,5-triazine-2,4-diamine] | 5.48 | 6.19 | 5.48 | 6.13 | 8.40 | 9.15 | 5.51
NC1=NC(c2ccc(Oc3ccccc3)cc2)N(c2ccc(Cl)cc2)C(N)=N1 (stereo unspecified) [1-(4-chlorophenyl)-6-(4-phenoxyphenyl)-1,6-dihydro-1,3,5-triazine-2,4-diamine] | – | 6.92 | 5.32 | 5.49 | 7.40 | 9.40 | 5.51
CCCCCCCC1N=C(N)N=C(N)N1c1cccc(Cl)c1 (stereo unspecified) [1-(3-Chloro-phenyl)-6-heptyl-1,6-dihydro-[1,3,5]triazine-2,4-diamine] | 5.60 | 7.40 | 6.85 | 6.48 | 8.40 | 8.57 | 6.59

SMILES | pIC50 [1] | pIC50 [2] | pIC50 [3] | pIC50 [4] | pIC50 [5] | pKi [6] | pIC50 [7]
NC1=NC(c2cccc(Oc3ccccc3)c2)N(c2cccc(Cl)c2)C(N)=N1 (stereo unspecified) [1-(3-chlorophenyl)-6-(3-phenoxyphenyl)-1,6-dihydro-1,3,5-triazine-2,4-diamine] | 5.44 | 5.66 | 5.47 | 5.46 | 7.22 | 8.96 | 5.57
Nc1nc(N)c(-c2ccccc2)c(CCCc2ccccc2)n1 | 5.07 | 6.68 | 5.57 | 5.57 | – | – | –
Nc1nc(N)c(-c2cccc(Cl)c2)c(CCOCCCOc2ccccc2)n1 [5-(3-chlorophenyl)-6-[2-(3-phenoxypropoxy)ethyl]pyrimidine-2,4-diamine] | 5.34 | 6.46 | 5.54 | 5.35 | – | – | –
NC1=NC(c2cccc(Oc3ccccc3)c2)N(c2ccc(Cl)cc2)C(N)=N1 (stereo unspecified) [1-(4-Chloro-phenyl)-6-(3-phenoxy-phenyl)-1,6-dihydro-[1,3,5]triazine-2,4-diamine] | – | – | – | – | – | 9.30 | –
NC1=NC(c2cccc(Oc3cc(Cl)cc(Cl)c3)c2)N(c2cccc(Cl)c2)C(N)=N1 (stereo unspecified) [1-(3-Chloro-phenyl)-6-[3-(3,5-dichloro-phenoxy)-phenyl]-1,6-dihydro-[1,3,5]triazine-2,4-diamine] | 5.41 | 5.26 | 5.41 | 5.47 | 7.30 | 8.74 | 5.51
CCCCCCC1(C)N=C(N)N=C(N)N1c1ccc(Cl)cc1 (stereo unspecified) [1-(4-chlorophenyl)-6-hexyl-6-methyl-1,6-dihydro-1,3,5-triazine-2,4-diamine] | 5.19 | 7.70 | 5.39 | 5.48 | 5.72 | 9.22 | 5.62
Nc1nc(N)c(-c2ccccc2)c(CCCOC(=O)c2ccccc2)n1 [Benzoic acid 3-(2,6-diamino-5-phenyl-pyrimidin-4-yl)-propyl ester] | – | – | – | – | – | 8.47 | –
CC(=O)OCCCc1nc(N)nc(N)c1-c1cccc(Cl)c1 [Acetic acid 3-[2,6-diamino-5-(3-chloro-phenyl)-pyrimidin-4-yl]-propyl ester] | 5.28 | 5.80 | 5.74 | 5.68 | – | – | –
Nc1nc(N)c(-c2cccc(Cl)c2)c(CCCOC(=O)c2ccccc2)n1 [3-(2,6-diamino-5-(3-chlorophenyl)pyrimidin-4-yl)propyl benzoate] | 5.12 | 5.68 | 5.72 | 5.70 | – | 8.82 | –
COc1ccc(CCCc2nc(N)nc(N)c2-c2cccc(Cl)c2)cc1 [5-(3-Chloro-phenyl)-6-[3-(4-methoxy-phenyl)-propyl]-pyrimidine-2,4-diamine] | 5.33 | 6.39 | 5.57 | 5.40 | – | – | –
NC1=NC(c2cccc(OCc3ccccc3)c2)N(c2ccc(Cl)cc2)C(N)=N1 (stereo unspecified) [6-(3-Benzyloxy-phenyl)-1-(4-chloro-phenyl)-1,6-dihydro-[1,3,5]triazine-2,4-diamine] | – | – | – | – | – | 9.15 | –
NC1=NC(c2cccc(OCCCOc3cc(Cl)c(Cl)cc3Cl)c2)N(c2cccc(Cl)c2)C(N)=N1 (stereo unspecified) [1-(3-chlorophenyl)-6-(3-(3-(2,4,5-trichlorophenoxy)propoxy)phenyl)-1,6-dihydro-1,3,5-triazine-2,4-diamine] | 5.07 | 5.52 | 5.28 | 5.49 | 6.43 | 8.40 | 5.13
NC1=NC(c2cccc(OCc3ccccc3)c2)N(c2cccc(Cl)c2)C(N)=N1 (stereo unspecified) [6-(3-(benzyloxy)phenyl)-1-(3-chlorophenyl)-1,6-dihydro-1,3,5-triazine-2,4-diamine] | – | 5.40 | 5.12 | 5.48 | 6.72 | 8.64 | 5.31
NC1=NC(c2cccc(Oc3ccc(Cl)cc3)c2)N(c2ccc(Cl)cc2)C(N)=N1 (stereo unspecified) [6-(3-(4-chlorophenoxy)phenyl)-1-(4-chlorophenyl)-1,6-dihydro-1,3,5-triazine-2,4-diamine] | – | 5.55 | – | – | 6.38 | 8.85 | 5.48
Nc1nc(N)c(-c2cccc(Cl)c2)c(CCCc2ccccc2)n1 | 5.24 | 6.17 | 5.44 | 5.37 | – | – | –
Nc1nc(N)c(-c2cccc(Cl)c2)c(CCCO)n1 [3-[2,6-Diamino-5-(3-chloro-phenyl)-pyrimidin-4-yl]-propan-1-ol] | 5.21 | 5.96 | 5.72 | 5.35 | – | 8.04 | –

— BindingDB's records for doi:10.1021/jm030165t (National Center For Genetic Engineering and Biotechnology …, 2004)
